This is an account of results in patent publication US7582786B2, “Synthetic catalytic free radical scavengers useful as antioxidants for prevention and therapy of disease” (Eukarion Inc., priority 1996, dated 2009).

Series [1] can be described thus: SOD activity, xanthine/xanthine oxidase with cytochrome C as acceptor (Example 2). The class given is biochemical. The following applies: for SOD: relative to C7 (C7 = 100). The gist of the method: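 Superoxide was generated by 120 µM xanthine and 0.2 U/ml xanthine oxidase in 50 mM sodium phosphate pH 7.8 at 27 °C, with salen manganese compounds at ≥4 concentrations in duplicate.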

A short description of series [2]: Catalase activity, conversion of H2O2 to oxygen, polarographic oxygen electrode (Example 2). The class given is biochemical. The gist of the method:
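Clark-type oxygen electrode at 25 °C in 50 mM sodium phosphate pH 8.1, 0.9% NaCl, with 10 μM salen-manganese complex and 10 mM H2O2. Initial rates from slope of first ~5 s, corrected for H2O2-alone rate; endpoint O2 as maximal minus pre-substrate baseline.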

Series [3] is described as follows: SOD activity, inhibition of cytochrome C reduction by xanthine plus xanthine oxidase (Example 1). The class given is biochemical. How it is done: The SOD activity of the compounds was determined by evaluating the inhibition of the reduction of cytochrome C produced by the oxygen free radical generating system, xanthine plus xanthine oxidase. Cytochrome C reduction is monitored spectrophotometrically at 550 nm according to the method described in Darr et al. (1987) Arch. Biochem. Biophys. 258: 351, incorporated herein by reference. The concentration of xanthine oxidase is adjusted such that it produces a rate of reduction of cytochrome C at 550 nm of 0.025 absorbance unit per minute. Under these conditions, the amount of SOD activity required to inhibit the rate of cytochrome C reduction by 50 percent (i.e., to a rate of 0.0125 absorbance unit per minute) is defined as one unit of activity. Salen-metal complexes are identified as antioxidants if they have at least 0.1 unit of activity at a concentration of 1 mM under these standard assay conditions.

The subject of another series is dopaminergic neurons. Nature of the series: MPTP mouse model of Parkinson's disease (mazindol binding). It is filed as in vivo. The protocol: Neuronal damage was induced in mice by injection with MPTP as described in Example 1. Where indicated, mice were also treated with intraperitoneal injections of C40 at 0.02 or 0.2 mg/kg. The integrity of the nigrostriatal dopaminergic neurons was assessed based upon ^3H-Mazindol binding to striatal membranes harvested from the brains of these mice about 1 week after MPTP administration.
The experiment was performed over a 7 day period. […] The animals were sacrificed after 7 days.

Another series concerns Rats. The series can be described thus: Rat model for myocardial infarct (permanent coronary occlusion). To be noted: intravenous bolus immediately prior to surgery, 48 hr recovery. It is filed as in vivo. How it is done: Rats were subjected to permanent regional cardiac ischemia by surgical occlusion of the left coronary artery. […] Sham-operated rats were subjected to surgery but the suture was not tied on the coronary artery. After a 48 hr recovery period, cardiac functional parameters were measured with a Millar transducing catheter implanted into the left ventricle.

The test system of series [4] is Rat hippocampal slices in culture. Nature of the series: Beta-amyloid peptide-induced cytotoxicity in hippocampal slice cultures. The class given is cell-based. The following applies: C7 25 μM. How it is done:
Rat hippocampal slices in culture were incubated with the beta-amyloid peptide (1-42) at the indicated concentrations. Cell viability was assessed by two criteria: release of lactate dehydrogenase (L*H) into the culture medium and staining with propidium […] iodide (PI) which binds to exposed DNA.
Rat hippocampal slice cultures were incubated with the beta-amyloid peptide (1-42) at the indicated concentrations. Cell viability was assessed by two criteria: release of lactate dehydrogenase (L*H) into the culture medium and staining with propidium iod*de (PI) which binds to exposed DNA.

Where [5] appears, read: 10 μM salen manganese complex, 10 mM H2O2.

Entries after “also recorded” stand apart in the source; their conditions may differ.

For `[Cl][Mn]1[O]c2ccccc2C=NCCN=Cc2ccccc2[O]1` [Compound C7], in series [1], the “SOD activity (in words)” value is recorded as “catalytic SOD activity” and the SOD came out at 100. For the same molecule, in series [2], the “catalase activity (in words)” value is “exhibits catalase activity”. The catalase turnovers completed result in series [2] (10 μM C7, ~1 mM H2O2) was “no more than a single turnover”. In series [2] (setting [5]), the Catalase rate turned out to be 148.6 ± 33.5 μM O2/min and the Endpoint turned out to be 32.3 ± 1.2 maximal μM O2. In series [2] (relative to C7 (C7 = 100)), this molecule returned a Catalase endpt. of 100 and a Catalase rate of 100. For the same molecule, in series [3] (Example 1, cytochrome C reduction), the “SOD Activity” value was 575 units/mM. The SOD Activity entry in series [3] (previously found) is given as “about 769 units/mM”. Besides, in the series with dopaminergic neurons (7 day test period), the “toxicity, adverse health effects” value was “absence of adverse health effects”. For the same molecule, the “number of surviving dopaminergic neurons in MPTP-treated mice” value in the series on dopaminergic neurons (C7 33 mg/kg i.p. pretreatment, MPTP 40 mg/kg days 1 and 2) is reported as “approximately doubled”. The “number of dopaminergic neurons, C7 alone” value with dopaminergic neurons (C7 alone) is “not adversely affected”. Also, the “protection, left ventricular diastolic pressure” value in the series on Rats is given as “protection”. The “protection from beta-amyloid peptide-induced cytotoxicity” value in series [4] is reported as “protect neurons; also recorded: protects neuronal tissue”.
In series [1], `COc1cccc2c1[O][Mn]([O]C(C)=O)[O]c1c(cccc1OC)C=NCCN=C2` [Compound C32] came in with an SOD of 96. Further, the “catalase activity (in words)” value in series [2] is “about twice as fast as C7”. Moreover, in series [2] (10 μM complex, 10 mM H2O2), the “turnovers before the catalase reaction ceased” value is listed as “about 16 turnovers”. In series [2] (setting [5]), this molecule displayed a Catalase rate of 295.0 ± 31.9 μM O2/min and an Endpoint of 90.1 ± 2.6 maximal μM O2. In series [2] (relative to C7 (C7 = 100)), this molecule registered a Catalase endpt. of 319 and a Catalase rate of 188.
In the case of `COc1cc(OC)c2c(c1)[O][Mn]([O]C(C)=O)[O]c1cc(OC)cc(OC)c1C=NCCN=C2` [Compound C35], the SOD in series [1] worked out at 27. In series [2], the “catalase activity (in words)” value was “much lower catalase activity”. In series [2] (setting [5]), the Catalase rate turned out to be 36.0 ± 8.0 μM O2/min and the Endpoint was determined as 10.5 ± 3.0 maximal μM O2. In series [2] (relative to C7 (C7 = 100)), this molecule gave a Catalase endpt. of 41 and a Catalase rate of 25.
For `COc1cccc2c1[O][Mn]([Cl])[O]c1c(cccc1OC)C=NCCN=C2` [Compound C40], the SOD in series [1] was determined as 96. In addition, the “catalase activity (in words)” value in series [2] is “higher rate”. Also, in series [2] (relative to C7 (C7 = 100)), the Catalase endpt. worked out at 272 and the Catalase rate is given as 155. Besides, the “protection of dopaminergic neurons (3H-Mazindol binding to striatal membranes)” value in the series with dopaminergic neurons (C40 0.02 or 0.2 mg/kg intraperitoneal) is on record as “protects dopaminergic neurons”. Besides, in the series on Rats, the “protection, left ventricular diastolic pressure” value is “protection”.
